Laboratory results: patent publication US20240150321A1, “PYRAZOLYLSULFONAMIDE COMPOUNDS AND THEIR USE IN THERAPY” (HOTSPOT THERAPEUTICS, INC., priority 2022, published 2024)
Read-outs that look alike come from different tables or passages of the source.

Experiments:
[1] = target: Avi-tagged FL MALT-1 (Homo sapiens (Human), UniProt Q9UDY8); experiment: MALT-1 Fluorogenic Peptide Cleavage Assay (MALT1 inhibition assay); assay type: biochemical; conditions: Ac-LRSR-AMC peptide substrate, 30 min pre-incubation, 90 min reaction at room temperature
In short: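 Cleavage of Ac-LRSR-AMC, read as fluorescence at 342/441 nm after 90 min at room temperature, with substrate working stocks of 50 μM (Km) or 280 μM (10×Km). Enzyme, Avi-tagged full-length MALT-1 (40 nM stock), was first pre-incubated 30 min with compound in citrate/HEPES pH 6.89 buffer with TCEP, EDTA, CHAPS and 2% DMSO; IC50 fitted from normalised % inhibition.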

[2] = system: NF-kB reporter in Jurkat cells; experiment: NF-kB reporter assay in Jurkat cells stimulated with aCD3/aCD28/PMA; assay type: cell-based; conditions: Homo sapiens, read-out: NF-kB Reporter Assay IC50
In short: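 Luminescence (One-Glo) from the NF-kB reporter yielded IC50 values. Stimulation lasted 4 h at 37° C with aCD3, aCD28 and PMA (final 5, 5 and 0.03 […]), after 1 h compound pre-exposure of 25,000 Jurkat cells per well in serum-free RPMI.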

[3] = Jurkat cells, 1 hr compound pre-incubation, aCD3/aCD28/PMA stimulation 4 hr, One-Glo readout

Sequence of Avi-tagged FL MALT-1 (Q9UDY8 whole entry): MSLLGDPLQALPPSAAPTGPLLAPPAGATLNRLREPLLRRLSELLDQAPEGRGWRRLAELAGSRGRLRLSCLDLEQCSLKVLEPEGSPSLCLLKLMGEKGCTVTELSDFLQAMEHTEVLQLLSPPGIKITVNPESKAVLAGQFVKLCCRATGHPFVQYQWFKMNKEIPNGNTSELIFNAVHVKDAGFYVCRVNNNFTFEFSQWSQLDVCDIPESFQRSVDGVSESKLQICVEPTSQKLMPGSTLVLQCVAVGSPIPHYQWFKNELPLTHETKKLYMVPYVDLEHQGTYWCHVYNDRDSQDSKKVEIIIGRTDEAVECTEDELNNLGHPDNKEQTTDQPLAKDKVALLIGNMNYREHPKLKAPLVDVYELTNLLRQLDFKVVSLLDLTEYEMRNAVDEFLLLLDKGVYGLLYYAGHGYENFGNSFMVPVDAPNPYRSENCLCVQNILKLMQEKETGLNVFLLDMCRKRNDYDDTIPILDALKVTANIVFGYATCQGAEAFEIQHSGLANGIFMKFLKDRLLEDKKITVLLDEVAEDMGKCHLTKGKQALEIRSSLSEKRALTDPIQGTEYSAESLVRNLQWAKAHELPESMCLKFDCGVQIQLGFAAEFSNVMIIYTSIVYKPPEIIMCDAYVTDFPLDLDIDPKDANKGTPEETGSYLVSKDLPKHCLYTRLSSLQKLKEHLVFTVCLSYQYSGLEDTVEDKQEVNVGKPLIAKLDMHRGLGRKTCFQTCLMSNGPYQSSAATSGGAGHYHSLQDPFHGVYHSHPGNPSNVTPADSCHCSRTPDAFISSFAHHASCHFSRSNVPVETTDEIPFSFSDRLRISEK

| Compound | IC50 [1] [nM] | IC50 [2, 3] [nM] | IC50 ([2]; Jurkat) [nM] |
| --- | --- | --- | --- |
| COc1ncc2cnn(C)c2c1NS(=O)(=O)c1cnn(-c2cc(N3CC4CC(C4)C3)ccn2)c1 [Compound I-406] | > 2500 | < 400 |  |
| CN(C)c1ccnc(-n2cc(S(=O)(=O)Nc3cccc4cnn(C)c34)cn2)c1 [Compound I-437, 1-[4-(dimethylamino)pyridin-2-yl]-N-(1-methylindazol-7-yl)pyrazole-4-sulfonamide] | > 2500 | < 400 |  |
| CC(=O)N1CC(c2ccnc(-n3cc(S(=O)(=O)Nc4cccc5cnn(C)c45)cn3)c2)C1 [Compound I-326] | > 2500 | > 2500 |  |
| COc1ncc2cnn(C)c2c1NS(=O)(=O)c1cnn(-c2cc(N3CC[C@H](F)C3)ccn2)c1 [Compound I-426] | > 2500 | < 400 |  |
| COc1ccc2cnn(C)c2c1NS(=O)(=O)c1cnn(-c2cc(N3CCC3)ccn2)c1 [Compound I-373, 1-(4-(azetidin-1-yl)pyridin-2-yl)-N-(6-methoxy-1-methyl-1H-indazol-7-yl)-1H-pyrazole-4-sulfonamide] | ≤ 400 |  | < 400 |
| COc1ccc2cnn(C)c2c1NS(=O)(=O)c1cnn(-c2cc([C@H](C)N3CCCCC3)ccn2)c1 [Compound I-462, (S)—N-(6-Methoxy-1-Methyl-1H-Indazol-7-yl)-1-(4-(1-(Piperidin-1-yl)Ethyl)Pyridin-2-yl)-1H-Pyrazole-4-Sulfonamide] | > 2500 | < 400 |  |
| Cc1n[nH]c2cccc(NS(=O)(=O)c3cnn(-c4ccnc(C(F)(F)F)c4)c3)c12 [Compound I-51, N-(3-Methyl-1H-Indazol-4-yl)-1-(2-(Trifluoromethyl)Pyridin-4-yl)-1H-Pyrazole-4-Sulfonamide] | > 2500 | > 2500 |  |
| COc1ccc2cnn(C)c2c1NS(=O)(=O)c1cnn(-c2cc(N3CCCCCC3)ccn2)c1 [Compound I-392] | > 2500 | < 400 |  |
| COc1ccc2cnn(C)c2c1NS(=O)(=O)c1cnn(-c2cc(N3CC(C)(OC)C3)ccn2)c1 [Compound I-453] | > 2500 | 400 to 1000 |  |
| COc1ccc2cnn(C)c2c1NS(=O)(=O)c1cnn(-c2cc(N3CC(C)(F)C3)ccn2)c1 [Compound I-444, 1-(4-(3-fluoro-3-methylazetidin-1-yl)pyridin-2-yl)-N-(6-methoxy-1-methyl-1H-indazol-7-yl)-1H-pyrazole-4-sulfonamide] | > 2500 | < 400 |  |
| COC[C@](C)(F)c1ccnc(-n2cc(S(=O)(=O)Nc3cccc4cnn(C)c34)cn2)c1 [Compound I-330, (R)-1-(4-(2-fluoro-1-methoxypropan-2-yl)pyridin-2-yl)-N-(1-methyl-1H-indazol-7-yl)-1H-pyrazole-4-sulfonamide] | > 2500 | < 400 |  |
| CC(=O)N1CC(F)(c2ccnc(-n3cc(S(=O)(=O)Nc4cccc5cnn(C)c45)cn3)c2)C1 [Compound I-253, 1-(4-(1-acetyl-3-fluoroazetidin-3-yl)pyridin-2-yl)-N-(1-methyl-1H-indazol-7-yl)-1H-pyrazole-4-sulfonamide] | > 2500 | 400 to 1000 |  |
| COC[C@H](OC)c1ccnc(-n2cc(S(=O)(=O)Nc3cccc4cnn(C)c34)cn2)c1 [Compound I-342] | > 2500 | 400 to 1000 |  |
| COCCn1ncc2cccc(NS(=O)(=O)c3cnn(-c4cc(C(F)(F)F)ccn4)c3)c21 [Compound I-98, N-(1-(2-Methoxyethyl)-1H-Indazol-7-yl)-1-(4-(Trifluoromethyl)Pyridin-2-yl)-1H-Pyrazole-4-Sulfonamide] | > 2500 | > 2500 |  |
| Cn1ncc2cccc(NS(=O)(=O)c3cnn(-c4cc(C(C)(C)CO)ccn4)c3)c21 [Compound I-307, 1-(4-(1-hydroxy-2-methylpropan-2-yl)pyridin-2-yl)-N-(1-methyl-1H-indazol-7-yl)-1H-pyrazole-4-sulfonamide] | > 2500 | < 400 |  |
| Cn1ncc2cccc(NS(=O)(=O)c3cnn(-c4cc(C5(O)CCOC5)ccn4)c3)c21 (stereo in doubt) [Compound I-312, (R)-1-(4-(3-hydroxytetrahydrofuran-3-yl)pyridin-2-yl)-N-(1-methyl-1H-indazol-7-yl)-1H-pyrazole-4-sulfonamide] | > 2500 | < 400 |  |
| COc1ncc2cnn(C)c2c1NS(=O)(=O)c1cnn(-c2cc(N3CCC4(CC4)C3)ccn2)c1 [Compound I-424] | > 2500 | < 400 |  |
| Cn1ncc2cccc(NS(=O)(=O)c3cnn(-c4cc(C(C)(C)C#N)ccn4)c3)c21 [Compound I-382, 1-(4-(2-cyanopropan-2-yl)pyridin-2-yl)-N-(1-methyl-1H-indazol-7-yl)-1H-pyrazole-4-sulfonamide] | > 2500 | < 400 |  |

The next lines start with results.

| IC50 [1] [nM] | IC50 [2, 3] [nM] | Compound | IC50 ([2]; Jurkat) [nM] |
| --- | --- | --- | --- |
| 1000 to 2500 | < 400 | Cc1cnc(-n2cc(S(=O)(=O)Nc3cccc4cnn(C)c34)cn2)cc1C(F)(F)F [Compound I-117, N-(1-methyl-1H-indazol-7-yl)-1-(5-methyl-4-(trifluoromethyl)pyridin-2-yl)-1H-pyrazole-4-sulfonamide] |  |
| > 2500 | < 400 | COCC(F)(F)c1ccnc(-n2cc(S(=O)(=O)Nc3cccc4cnn(C)c34)cn2)c1 [Compound I-268] |  |
| ≤ 400 | < 400 | COc1ncc2cnn(C)c2c1NS(=O)(=O)c1cnn(-c2ccnc(C(F)(F)F)c2)c1 [Compound I-87, N-(6-Methoxy-1-Methyl-1H-Pyrazolo[4,3-C]Pyridin-7-yl)-1-(2-(Trifluoromethyl)Pyridin-4-yl)-1H-Pyrazole-4-Sulfonamide] |  |
| > 2500 | < 400 | Cn1ncc2cccc(NS(=O)(=O)c3cnn(-c4cc(NC(C)(C)CO)ccn4)c3)c21 [Compound I-324, 1-(4-((1-Hydroxy-2-Methylpropan-2-yl)Amino)Pyridin-2-yl)-N-(1-Methyl-1H-Indazol-7-yl)-1H-Pyrazole-4-Sulfonamide] |  |
| ≤ 400 | < 400 | CCc1ccc2cnn(C)c2c1NS(=O)(=O)c1cnn(-c2cc(C3CC3)ccn2)c1 [Compound I-56, 1-(4-Cyclopropylpyridin-2-yl)-N-(6-Ethyl-1-Methyl-1H-Indazol-7-yl)-1H-Pyrazole-4-Sulfonamide] |  |
| 1000 to 2500 | < 400 | COc1ncc2cnn(C)c2c1NS(=O)(=O)c1cnn(-c2cc(N3CC4CC3C4)ccn2)c1 [Compound I-436] |  |
| ≤ 400 | < 400 | COc1ccc2[nH]nc(C)c2c1N(C)S(=O)(=O)c1cnn(-c2cc(C(F)(F)F)ccn2)c1 [Compound I-82, N-(5-Methoxy-3-Methyl-1H-Indazol-4-yl)-N-Methyl-1-(4-(Trifluoromethyl)Pyridin-2-yl)-1H-Pyrazole-4-Sulfonamide] |  |
| 400 to 1000 | < 400 | COc1ccc2cnn(C)c2c1NS(=O)(=O)c1cnn(-c2cc(N3CC4CC3C4)ccn2)c1 [Compound I-432, 1-(4-(2-azabicyclo[2.1.1]hexan-2-yl)pyridin-2-yl)-N-(6-methoxy-1-methyl-1H-indazol-7-yl)-1H-pyrazole-4-sulfonamide] |  |
| ≤ 400 | < 400 | COc1ccc2cnn(C)c2c1NS(=O)(=O)c1cnn(-c2cc(C(F)(F)F)n(C)n2)c1 [Compound I-266, N-(6-methoxy-1-methyl-1H-indazol-7-yl)-1′-methyl-5′-(trifluoromethyl)-1′H-[1,3′-bipyrazole]-4-sulfonamide] |  |
| ≤ 400 | < 400 | COc1ccc2cnn(C)c2c1NS(=O)(=O)c1cnn(-c2cc(C)ccn2)c1 [Compound I-35, N-(6-Methoxy-1-Methyl-1H-Indazol-7-yl)-1-(4-Methylpyridin-2-yl)-1H-Pyrazole-4-Sulfonamide] |  |
| 400 to 1000 | < 400 | CCC(C)(O)c1ccnc(-n2cc(S(=O)(=O)Nc3c(OC)ccc4cnn(C)c34)cn2)c1 (single isomer, unassigned) [Compound I-315, 1-(4-(2-hydroxybutan-2-yl)pyridin-2-yl)-N-(6-methoxy-1-methyl-1H-indazol-7-yl)-1H-pyrazole-4-sulfonamide] |  |
| ≤ 400 | < 400 | COc1ccc2[nH]nc(C)c2c1NS(=O)(=O)c1cnn(-c2cc(C(F)(F)F)ccn2)c1 [Compound I-81, N-(5-Methoxy-3-Methyl-1H-Indazol-4-yl)-1-(4-(Trifluoromethyl)Pyridin-2-yl)-1H-Pyrazole-4-Sulfonamide] |  |
| ≤ 400 | < 400 | COc1ccc2cnn(C)c2c1NS(=O)(=O)c1cnn(-c2ccnc(C(F)(F)F)c2)c1 [Compound I-4, N-(6-Methoxy-1-Methyl-1H-Indazol-7-yl)-1-(2-(Trifluoromethyl)Pyridin-4-yl)-1H-Pyrazole-4-Sulfonamide] |  |
| 400 to 1000 | 1000 to 2500 | CCc1ccc2cnn(C)c2c1NS(=O)(=O)c1cnn(-c2ccnc(C(F)(F)F)c2)c1C [Compound I-30, N-(6-Ethyl-1-Methyl-1H-Indazol-7-yl)-5-Methyl-1-(2-(Trifluoromethyl)Pyridin-4-yl)-1H-Pyrazole-4-Sulfonamide] |  |
| ≤ 400 | < 400 | COc1ccc2cnn(C)c2c1NS(=O)(=O)c1cnn(-c2cc(C(C)(C)OC)ccn2)c1 [Compound I-258, N-(6-methoxy-1-methyl-1H-indazol-7-yl)-1-(4-(2-methoxypropan-2-yl)pyridin-2-yl)-1H-pyrazole-4-sulfonamide] |  |
